From patent US12655125B2 (SIRONAX LTD., priority 2020, dated 2026)
Like-named read-outs stand apart in the source and are kept apart here.

Test system: HT-29 cells
Assay: HT29 Cells 0FBS Assay In Vitro (TNF-α/SMAC mimetic/zVAD-FMK induced necroptosis, CellTiter-Glo cell viability)
Assay type: cell-based
Details: Homo sapiens
Procedure, shortened: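 Viability was measured by ATP luminescence (CellTiter-Glo) after 20 h at 37° C of compound exposure in 10-point, 1:3 dilutions. Necroptosis in FBS-free HT-29 cultures was driven by a TNF-α (10 ng/ml), SMAC mimetic (6 μM) and zVAD-FMK (10 μM) cocktail. EC50 values are geometric means from duplicate curves.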

[1] = HT-29 cells, FBS free medium, TNF-α (10 ng/ml), SMAC mimetic (6 uM), zVAD-FMK (10 μM), 20 hours, geometric mean EC50, read-out: Cell activity (EC50) of Compounds 1-116
[2] = HT-29 cells, FBS free medium, TNF-α (10 ng/ml), SMAC mimetic (6 uM), zVAD-FMK (10 μM), 20 hours, geometric mean EC50, read-out: Cell activity (EC50) of Compounds 117-281

Compound: Cc1nn(-c2cc(OC3CN(C(=O)N4N=CC[C@H]4c4cc(F)cc(F)c4)C3)c(F)cn2)c(C)c1N [compound 109, (S)-(3-((2-(4-amino-3,5-dimethyl-11H-pyrazol-1-yl)-5-fluoropyridin-4-yl)oxy)azetidin-1-yl)(5-(3,5-difluorophenyl)-4,5-dihydro-1H-pyrazol-1-yl)methanone]
- EC50 [1]: 0.1 to 100 nM

Compound: Cc1nn(-c2cc(OC3CN(C(=O)N4N=CC[C@H]4c4cc(F)cc(F)c4)C3)c(F)cn2)c(C)c1C(=O)N[C@H]1CCOC1 [compound 257, 1-(4-((1-((S)-5-(3,5-difluorophenyl)-4,5-dihydro-1H-pyrazole-1-carbonyl)azetidin-3-yl)oxy)-5-fluoropyridin-2-yl)-3,5-dimethyl-N—((S)-tetrahydrofuran-3-yl)-1H-pyrazole-4-carboxamide]
- EC50 [2]: 0.1 to 100 nM

Compound: Cc1scnc1-c1ccc(F)c(OC2CN(C(=O)N3N=CC[C@H]3c3cc(F)cc(F)c3)C2)n1 [compound 13, (S)-(5-(3,5-difluorophenyl)-4,5-dihydro-1H-pyrazol-1-yl)(3-((3-fluoro-6-(5-methylthiazol-4-yl)pyridin-2-yl)oxy)azetidin-1-yl)methanone]
- EC50 [1]: 0.1 to 100 nM

Compound: Cc1n[nH]cc1-c1cc(OC2CN(C(=O)N3N=CC[C@H]3c3cc(F)cc(F)c3)C2)c(F)cn1 [compound 85, (S)-(5-(3,5-difluorophenyl)-4,5-dihydro-1H-pyrazol-1-yl)(3-((5-fluoro-2-(3-methyl-1H-pyrazol-4-yl)pyridin-4-yl)oxy)azetidin-1-yl)methanone]
- EC50 [1]: 0.1 to 100 nM

Compound: Cn1ccnc1-c1cc(OC2CN(C(=O)N3N=CC[C@H]3c3cc(F)cc(F)c3)C2)c(F)cn1 [compound 146, (S)-(5-(3,5-difluorophenyl)-4,5-dihydro-1H-pyrazol-1-yl)(3-((5-fluoro-2-(1-methyl-1H-imidazol-2-yl)pyridin-4-yl)oxy)azetidin-1-yl)methanone]
- EC50 [2]: 0.1 to 100 nM

Compound: CC(=O)Nc1cc(-c2cc(OC3CN(C(=O)N4N=CC[C@H]4c4cc(F)cc(F)c4)C3)c(F)cn2)n(C)n1 [compound 135]
- EC50 (HT-29, 20 h, read-out: Cell activity (EC50) of Compounds 117-281): 0.1 to 100 nM

Compound: Cc1cn(C)nc1-c1cc(OC2CN(C(=O)N3N=CC[C@H]3c3cc(F)cc(F)c3)C2)c(F)cn1 [compound 219, (S)-(5-(3,5-difluorophenyl)-4,5-dihydro-1H-pyrazol-1-yl)(3-((2-(1,4-dimethyl-1H-pyrazol-3-yl)-5-fluoropyridin-4-yl)oxy)azetidin-1-yl)methanone]
- EC50 [2]: 0.1 to 100 nM

Compound: Cc1nn(-c2cc(OC3CN(C(=O)N4N=CC[C@H]4c4cc(F)cc(F)c4)C3)c(F)cn2)c(C)c1CN1CCCC1=O [compound 274, (S)-1-((1-(4-((1-(5-(3,5-difluorophenyl)-4,5-dihydro-1H-pyrazole-1-carbonyl)azetidin-3-yl)oxy)-5-fluoropyridin-2-yl)-3,5-dimethyl-11H-pyrazol-4-yl)methyl)pyrrolidin-2-one]
- EC50 [2]: 0.1 to 100 nM

Compound: Cc1nn(-c2ncc(F)c(OC3CN(C(=O)N4N=CC[C@H]4c4cc(F)cc(F)c4)C3)n2)c(C)c1C(N)=O [compound 276, (S)-1-(4-((1-(5-(3,5-difluorophenyl)-4,5-dihydro-1H-pyrazole-1-carbonyl)azetidin-3-yl)oxy)-5-fluoropyrimidin-2-yl)-3,5-dimethyl-1H-pyrazole-4-carboxamide]
- EC50 [2]: 0.1 to 100 nM

Compound: Cc1nn(-c2cc(OC3CN(C(=O)N4N=CC[C@H]4c4cc(F)cc(F)c4)C3)c(F)cn2)c(C)c1C [compound 251, (S)-(5-(3,5-difluorophenyl)-4,5-dihydro-1H-pyrazol-1-yl)(3-((5-fluoro-2-(3,4,5-trimethyl-1H-pyrazol-1-yl)pyridin-4-yl)oxy)azetidin-1-yl)methanone]
- EC50 [2]: 0.1 to 100 nM

Compound: Cc1nn(CC(=O)N(C)C)c(C)c1-c1cc(OC2CN(C(=O)N3N=CC[C@H]3c3cc(F)cc(F)c3)C2)c(F)cn1 [compound 95, (S)-2-(4-(4-((1-(5-(3,5-difluorophenyl)-4,5-dihydro-1H-pyrazole-1-carbonyl)azetidin-3-yl)oxy)-5-fluoropyridin-2-yl)-3,5-dimethyl-1H-pyrazol-1-yl)-N,N-dimethylacetamide]
- EC50 [1]: 0.1 to 100 nM

Compound: Cc1nn(-c2cc(OC3CN(C(=O)N4N=CC[C@H]4c4cc(F)cc(F)c4)C3)c(F)cn2)c(C)c1CO [compound 148, (S)-(5-(3,5-difluorophenyl)-4,5-dihydro-1H-pyrazol-1-yl)(3-((5-fluoro-2-(4-(hydroxymethyl)-3,5-dimethyl-1H-pyrazol-1-yl)pyridin-4-yl)oxy)azetidin-1-yl)methanone]
- EC50 [2]: 0.1 to 100 nM

Compound: Cc1n[nH]c(N)c1-c1cc(OC2CN(C(=O)N3N=CC[C@H]3c3cc(F)cc(F)c3)C2)c(F)cn1 [compound 205, (S)-(3-((2-(5-amino-3-methyl-1H-pyrazol-4-yl)-5-fluoropyridin-4-yl)oxy)azetidin-1-yl)(5-(3,5-difluorophenyl)-4,5-dihydro-1H-pyrazol-1-yl)methanone]
- EC50 [2]: 0.1 to 100 nM

Compound: Cc1nn(-c2cc(OC3CN(C(=O)N4N=CC[C@H]4c4cc(F)cc(F)c4)C3)c(F)cn2)c(C)c1CC(=O)N1CCC1 [compound 222, (S)-1-(azetidin-1-yl)-2-(1-(4-((1-(5-(3,5-difluorophenyl)-4,5-dihydro-1H-pyrazole-1-carbonyl)azetidin-3-yl)oxy)-5-fluoropyridin-2-yl)-3,5-dimethyl-1H-pyrazol-4-yl)ethan-1-one]
- EC50 [2]: 0.1 to 100 nM

Compound: Cc1nn(-c2cc(OC3CN(C(=O)N4N=CC[C@H]4c4cc(F)cc(F)c4)C3)c(F)cn2)c(C)c1CC#N [compound 271, (S)-2-(1-(4-((1-(5-(3,5-difluorophenyl)-4,5-dihydro-1H-pyrazole-1-carbonyl)azetidin-3-yl)oxy)-5-fluoropyridin-2-yl)-3,5-dimethyl-1H-pyrazol-4-yl)acetonitrile]
- EC50 [2]: 0.1 to 100 nM

Compound: CN(C)Cc1cnn(C)c1-c1cc(OC2CN(C(=O)N3N=CC[C@H]3c3cc(F)cc(F)c3)C2)c(F)cn1 [compound 79, (S)-(5-(3,5-difluorophenyl)-4,5-dihydro-1H-pyrazol-1-yl)(3-((2-(4-((dimethylamino)methyl)-1-methyl-1H-pyrazol-5-yl)-5-fluoropyridin-4-yl)oxy)azetidin-1-yl)methanone]
- EC50 (HT-29, 20 h, read-out: Cell activity (EC50) of Compounds 1-116): 0.1 to 100 nM

Compound: Cc1c(C(N)=O)nn(C)c1-c1ccc(F)c(OC2CN(C(=O)N3N=CC[C@H]3c3cc(F)cc(F)c3)C2)n1 [compound 196, (S)-5-(6-((1-(5-(3,5-difluorophenyl)-4,5-dihydro-1H-pyrazole-1-carbonyl)azetidin-3-yl)oxy)-5-fluoropyridin-2-yl)-1,4-dimethyl-1H-pyrazole-3-carboxamide]
- EC50 [2]: 0.1 to 100 nM

Compound: CSc1c(C)nn(-c2cc(OC3CN(C(=O)N4N=CC[C@H]4c4cc(F)cc(F)c4)C3)c(F)cn2)c1C [compound 203, (S)-(5-(3,5-difluorophenyl)-4,5-dihydro-1H-pyrazol-1-yl)(3-((2-(3,5-dimethyl-4-(methylthio)-1H-pyrazol-1-yl)-5-fluoropyridin-4-yl)oxy)azetidin-1-yl)methanone]
- EC50 [2]: 0.1 to 100 nM

Compound: Cc1nn(-c2cc(OC3CN(C(=O)N4N=CC[C@H]4c4cc(F)cc(F)c4)C3)c(F)cn2)c(C)c1N1CCCC1=O [compound 270, (S)-1-(1-(4-((1-(5-(3,5-difluorophenyl)-4,5-dihydro-1H-pyrazole-1-carbonyl)azetidin-3-yl)oxy)-5-fluoropyridin-2-yl)-3,5-dimethyl-1H-pyrazol-4-yl)pyrrolidin-2-one]
- EC50 [2]: 0.1 to 100 nM

Compound: O=C(N1CC(Oc2cc(-c3ccn[nH]3)ncc2F)C1)N1N=CC[C@H]1c1cc(F)cc(F)c1 [compound 261, (S)-(5-(3,5-difluorophenyl)-4,5-dihydro-1H-pyrazol-1-yl)(3-((5-fluoro-2-(1H-pyrazol-5-yl)pyridin-4-yl)oxy)azetidin-1-yl)methanone]
- EC50 [2]: 0.1 to 100 nM

Compound: Cc1c(-c2cc(OC3CN(C(=O)N4N=CC[C@H]4c4cc(F)cc(F)c4)C3)c(F)cn2)nn(C)c1C(=O)NC1CCOCC1 [compound 247, (S)-3-(4-((1-(5-(3,5-difluorophenyl)-4,5-dihydro-1H-pyrazole-1-carbonyl)azetidin-3-yl)oxy)-5-fluoropyridin-2-yl)-1,4-dimethyl-N-(tetrahydro-2H-pyran-4-yl)-1H-pyrazole-5-carboxamide]
- EC50 [2]: 0.1 to 100 nM

Compound: O=C(N1CC(Oc2nc(-c3ccn[nH]3)ncc2F)C1)N1N=CC[C@H]1c1cc(F)cc(F)c1 [compound 87, (S)-(5-(3,5-difluorophenyl)-4,5-dihydro-1H-pyrazol-1-yl)(3-((5-fluoro-2-(1H-pyrazol-5-yl)pyrimidin-4-yl)oxy)azetidin-1-yl)methanone]
- EC50 [1]: 0.1 to 100 nM

Compound: Cc1nc(C)n(-c2ccc(F)c(OC3CN(C(=O)N4N=CCC4c4cc(F)cc(F)c4)C3)c2)n1 (centres unmarked) [compound 116]
- EC50 [1]: 0.1 to 100 nM

Compound: Cc1nn(-c2cc(OC3CN(C(=O)N4N=CC[C@H]4c4cc(F)cc(F)c4)C3)c(F)cn2)c(C)c1C(=O)N[C@@H]1CCOC1 [compound 258, 1-(4-((1-((S)-5-(3,5-difluorophenyl)-4,5-dihydro-1H-pyrazole-1-carbonyl)azetidin-3-yl)oxy)-5-fluoropyridin-2-yl)-3,5-dimethyl-N—((R)-tetrahydrofuran-3-yl)-1H-pyrazole-4-carboxamide]
- EC50 [2]: 0.1 to 100 nM

Compound: Cn1cncc1-c1ccc(F)c(OC2CN(C(=O)N3N=CC[C@H]3c3cc(F)cc(F)c3)C2)n1 [compound 6, (S)-(5-(3,5-difluorophenyl)-4,5-dihydro-1H-pyrazol-1-yl)(3-((3-fluoro-6-(1-methyl-1H-imidazol-5-yl)pyridin-2-yl)oxy)azetidin-1-yl)methanone]
- EC50 [1]: 0.1 to 100 nM

Compound: Cc1nsc(C)c1-c1cc(OC2CN(C(=O)N3N=CC[C@H]3c3cc(F)cc(F)c3)C2)c(F)cn1 [compound 127, (S)-(5-(3,5-difluorophenyl)-4,5-dihydro-1H-pyrazol-1-yl)(3-((2-(3,5-dimethylisothiazol-4-yl)-5-fluoropyridin-4-yl)oxy)azetidin-1-yl)methanone]
- EC50 [2]: 0.1 to 100 nM
